This is an account of results in article PMC9125976, “Cyanoacetohydrazide linked to 1,2,3-triazole derivatives: a new class of α-glucosidase inhibitors” (Scientific Reports, 2022).

Entries after “also recorded” stand apart in the source; their conditions may differ.

Assay [1] addresses T1, α-glucosidase (Saccharomyces cerevisiae, UniProt P53341).
T1 construct: purchased Sigma-Aldrich
To be noted: cited from earlier work.

Assay [2] concerns the target T2, α-Glucosidase (Saccharomyces cerevisiae, EC3.2.1.20) (Saccharomyces cerevisiae, UniProt P53341).
T2 construct: purchased Sigma-Aldrich
As to the kind of experiment: In vitro α-glucosidase inhibition assay. The format is biochemical. The method, then:
α-Glucosidase (Saccharomyces cerevisiae, EC3.2.1.20, 20 U/mg) and the substrate, […] (p-NPG) were purchased from Sigma-Aldrich and the assay was performed exactly according to our previous report. In this respect, various concentrations of each synthesized compound dissolved in DMSO, were added to potassium phosphate buffer (50 mM, pH 6.8) including enzyme (at final concentration of 0.1 U/mL), in a 96-well plate. After a 10-min incubation at 37 °C, p-NPG was added to each well to achieve final concentration of 4 mM. Then, the plate was re-incubated at 37 °C for 20 min. It should be noted that the final concentration of DMSO in each enzymatic solution was 10%. Finally, the change in the absorbance was measured at 405 nm using spectrophotometer (Synergy HTX Multi-Mode Microplate Reader–BioTek, Germany). […] The percentage of inhibition for compounds and control was calculated using Eq. (1):1 Inhibition%=ODnegative control-ODsample/ODnegative control×100OD=optical density at 405 nm.
IC50 values were calculated from the nonlinear regression curve using the Logit method.

Assay [3] concerns the target T1, α-glucosidase. The experiment in a line: Enzyme kinetic studies (Lineweaver–Burk plot). It counts as biochemical. To be noted: for Ki: p-NPG 2–16 mM. The text has this:
A Lineweaver–Burk plot was generated to identify the type of inhibition and the Michaelis–Menten constant.

In assay [4] the target is T1, α-glucosidase. As to the kind of experiment: Fluorescence spectroscopy measurements. The format is binding. Particulars: 9e 0–1.0 μM, excitation 280 nm, emission maximum 340 nm, phosphate buffer 50 mM pH 6.8. The method, then:
Compound 9e at different concentrations (0–1.0 µM) was added into the 3 mL solution containing a fixed amount of α-glucosidase (0.1 U/mL). All mixtures were held for 10 min to equilibrate before measurements. Then, the fluorescence emission spectra were measured from 300 to 450 nm at the excitation wavelength of 280 nm on a Synergy HTX multi-mode reader (Biotek Instruments, Winooski, VT, USA) equipped with a 1.0 cm quartz cell holder. The fluorescence spectra of the buffer containing compound 9e in the absence of the enzyme were subtracted as the background fluorescence.

Assay [5] concerns the target T1, α-glucosidase. The experiment in a line: Thermodynamic analysis (thermal denaturation followed by fluorescence). The procedure:
Thermodynamic analysis was performed as described by Mojtabavi et al., the fluorescent intensity data were plotted as a function of temperature, and the thermodynamic profile was computed[48],[49]. Therefore, the denatured fraction (FD) of protein was calculated from Eq. (2), assuming a two-state mechanism for the protein denaturation:2 FD=YN-Yobs/YN-YD.
In Eq. (2), Yobs, YN, and YD are the observed […] characteristics of a fully native and denatured conformation, respectively. Equation (3) was used to calculate the apparent equilibrium constant (K) for a reversible denaturation process between native and denatured protein states:3 K=FD/1-FD=Yobs-YD/YN-YD.
The standard Gibbs free energy change (ΔG°) for protein denaturation is given by the Eq. (4):4 ΔG^^∘=GD^∘-GN^∘=-RTlnK, where T and R are the absolute temperature and the universal gas constant, respectively. The Gibbs free energy (ΔG°) is the most valuable standard of protein conformational stability in thermal denaturation. The integrated Gibbs–Helmholtz equation was utilized for measuring changes in the Gibbs energy of a system as a function of temperature (Eq. (5)):5 ΔG^^∘=ΔHm^∘1-T/Tm-ΔCpTm-T+TLnT/Tm, where ΔCp is the heat capacity of protein denaturation. The ΔCp (11.6 kJ/mol K) of the α-glucosidase denaturation was taken from van der Kamp et al. report. In thermal denaturation, Tm is the temperature at which the protein is half denatured. ΔH°m and ΔS°m are the standard enthalpy and entropy of denaturation. The standard entropy was calculated from a relation between the standard […] of denaturation as bellow: ΔH=TmΔS.

T2 sequence (P53341 whole entry): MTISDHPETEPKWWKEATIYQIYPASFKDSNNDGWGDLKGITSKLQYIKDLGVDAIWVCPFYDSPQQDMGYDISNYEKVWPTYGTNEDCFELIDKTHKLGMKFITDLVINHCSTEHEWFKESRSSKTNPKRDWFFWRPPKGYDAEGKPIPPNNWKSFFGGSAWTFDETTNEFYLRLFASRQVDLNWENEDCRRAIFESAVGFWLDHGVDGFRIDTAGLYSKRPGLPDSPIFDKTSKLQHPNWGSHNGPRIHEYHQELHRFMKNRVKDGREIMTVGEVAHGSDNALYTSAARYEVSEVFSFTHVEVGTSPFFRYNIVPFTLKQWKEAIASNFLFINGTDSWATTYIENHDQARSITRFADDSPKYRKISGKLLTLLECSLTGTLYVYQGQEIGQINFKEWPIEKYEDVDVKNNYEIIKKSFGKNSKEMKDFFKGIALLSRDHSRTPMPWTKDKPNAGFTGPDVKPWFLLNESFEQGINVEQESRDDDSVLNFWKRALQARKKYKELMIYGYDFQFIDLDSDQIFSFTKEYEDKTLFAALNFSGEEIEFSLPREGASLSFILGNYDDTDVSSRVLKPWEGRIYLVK
T1 sequence (P53341 whole entry): as above

For `CCc1ccc(NC(=O)Cn2cc(COc3ccc(-c4nc5ccccc5[nH]4)cc3)nn2)cc1` [B], the mode of inhibition entry in assay [1] is “competitive”.

As to `COc1cc(C=NNC(=O)CC#N)ccc1OCc1cn(Cc2ccccc2)nn1` [Compound 9a, N′-(4-((1-benzyl-1H-1,2,3-triazol-4-yl)methoxy)-3-methoxybenzylidene)-2-cyanoacetohydrazide], in assay [2], the IC50 was more than 750 µM.

For the compound `COc1cc(C=NNC(=O)CC#N)ccc1OCc1cn(Cc2ccccc2F)nn1` [Compound 9b, 2-Cyano-N′-(4-((1-(2-fluorobenzyl)-1H-1,2,3-triazol-4-yl)methoxy)-3-methoxybenzylidene)acetohydrazide], the IC50 in assay [2] amounted to 1.5 ± 0.01 µM. In addition, in assay [3], the type of inhibition entry is listed as “uncompetitive inhibition; also recorded: uncompetitively” and the affinity corresponds to a Ki of 0.43 µM.

As to `COc1cc(C=NNC(=O)CC#N)ccc1OCc1cn(Cc2ccc(F)cc2)nn1` [Compound 9c, 2-Cyano-N′-(4-((1-(4-fluorobenzyl)-1H-1,2,3-triazol-4-yl)methoxy)-3-methoxybenzylidene)acetohydrazide], the IC50 in assay [2] was 9.73 ± 0.3 µM.

For `COc1cc(C=NNC(=O)CC#N)ccc1OCc1cn(Cc2ccccc2Cl)nn1` [Compound 9d, N′-(4-((1-(2-chlorobenzyl)-1H-1,2,3-triazol-4-yl)methoxy)-3-methoxybenzylidene)-2-cyanoacetohydrazide], the IC50 in assay [2] came to 14 ± 0.8 µM.

Regarding `COc1cc(C=NNC(=O)CC#N)ccc1OCc1cn(Cc2ccc(Cl)cc2)nn1` [Compound 9e, N′-(4-((1-(4-chlorobenzyl)-1H-1,2,3-triazol-4-yl)methoxy)-3-methoxybenzylidene)-2-cyanoacetohydrazide], in assay [2], the IC50 was 1 ± 0.01 µM and the “fold better potency than the standard drug acarbose” value was 754 fold. Moreover, in assay [3], the type of inhibition result was “uncompetitive inhibition; also recorded: uncompetitively” and the affinity corresponds to a Ki of 0.24 µM. Moreover, in assay [4], the “change of α-glucosidase fluorescence” value is on record as “significant increase in fluorescence intensity”. In assay [5] (compound 9e 0.25 µM), the “Tm of α-glucosidase” value came to 316 K, the “ΔHm° of α-glucosidase denaturation” value is 22.58 kcal/mol and the “ΔSm° of α-glucosidase denaturation” value was 298.95 J mol^−1 K^−1. In assay [5] (compound 9e 0.50 µM), the “Tm of α-glucosidase” value turned out to be 315 K, the “ΔHm° of α-glucosidase denaturation” value was 26.974 kcal/mol and the “ΔSm° of α-glucosidase denaturation” value was determined as 358.28 J mol^−1 K^−1. In assay [5] (compound 9e 0.75 µM), the “Tm of α-glucosidase” value turned out to be 313 K, the “ΔHm° of α-glucosidase denaturation” value came out at 42.326 kcal/mol and the “ΔSm° of α-glucosidase denaturation” value was determined as 565.76 J mol^−1 K^−1. In assay [5] (compound 9e 1.0 µM), the “Tm of α-glucosidase” value was determined as 311 K, the “ΔHm° of α-glucosidase denaturation” value is 142.81 kcal/mol and the “ΔSm° of α-glucosidase denaturation” value is given as 1921.22 J mol^−1 K^−1.

Turning to `COc1cc(C=NNC(=O)CC#N)ccc1OCc1cn(Cc2ccccc2C)nn1` [Compound 9f, 2-Cyano-N′-(3-methoxy-4-((1-(2-methylbenzyl)-1H-1,2,3-triazol-4-yl)methoxy)benzylidene)acetohydrazide], the IC50 in assay [2] was found to be 28 ± 0.1 µM.

On to `COc1cc(C=NNC(=O)CC#N)ccc1OCc1cn(Cc2ccc(C)cc2)nn1` [Compound 9g, 2-Cyano-N′-(3-methoxy-4-((1-(4-methylbenzyl)-1H-1,2,3-triazol-4-yl)methoxy)benzylidene)acetohydrazide], for which the IC50 in assay [2] worked out at 22.8 ± 0.6 µM.

With `N#CCC(=O)NN=Cc1ccc(OCc2cn(Cc3ccccc3)nn2)cc1` [Compound 9h, N′-(4-((1-benzyl-1H-1,2,3-triazol-4-yl)methoxy)benzylidene)-2-cyanoacetohydrazide], in assay [2], the IC50 came out at 271.2 ± 0.3 µM.

As to `N#CCC(=O)NN=Cc1ccc(OCc2cn(Cc3ccccc3F)nn2)cc1` [Compound 9i, 2-Cyano-N′-(4-((1-(2-fluorobenzyl)-1H-1,2,3-triazol-4-yl)methoxy)benzylidene)acetohydrazide], the IC50 in assay [2] turned out to be 45.89 ± 0.1 µM. In addition, in assay [3], the type of inhibition entry is recorded as “competitive inhibition” and affinity was put at a Ki of 75 µM.

As to `N#CCC(=O)NN=Cc1ccc(OCc2cn(Cc3ccc(F)cc3)nn2)cc1` [Compound 9j, 2-Cyano-N′-(4-((1-(4-fluorobenzyl)-1H-1,2,3-triazol-4-yl)methoxy)benzylidene)acetohydrazide], the IC50 in assay [2] stood at 56.6 ± 0.7 µM.

For the compound `N#CCC(=O)NN=Cc1ccc(OCc2cn(Cc3ccccc3Cl)nn2)cc1` [Compound 9k, N′-(4-((1-(2-chlorobenzyl)-1H-1,2,3-triazol-4-yl)methoxy)benzylidene)-2-cyanoacetohydrazide], the IC50 in assay [2] was determined as 74.7 ± 2.8 µM.

Regarding `N#CCC(=O)NN=Cc1ccc(OCc2cn(Cc3ccc(Cl)cc3)nn2)cc1` [Compound 9l, N′-(4-((1-(4-chlorobenzyl)-1H-1,2,3-triazol-4-yl)methoxy)benzylidene)-2-cyanoacetohydrazide], the IC50 in assay [2] amounted to 21.66 ± 0.12 µM. In assay [3], the type of inhibition result is on record as “competitive inhibition” and the affinity, expressed as Ki, was 85 µM.

`Cc1ccccc1Cn1cc(COc2ccc(C=NNC(=O)CC#N)cc2)nn1` [Compound 9m, 2-Cyano-N′-(4-((1-(2-methylbenzyl)-1H-1,2,3-triazol-4-yl)methoxy)benzylidene)acetohydrazide]: the IC50 in assay [2] amounted to 11.3 ± 0.2 µM.

For the compound `Cc1ccc(Cn2cc(COc3ccc(C=NNC(=O)CC#N)cc3)nn2)cc1` [Compound 9n, 2-Cyano-N′-(4-((1-(4-methylbenzyl)-1H-1,2,3-triazol-4-yl)methoxy)benzylidene)acetohydrazide], in assay [2], the IC50 was 82.4 ± 1.3 µM.

As to `O=c1oc2ccccc2c(O)c1C(c1ccc(OCc2cn(Cc3ccccc3Cl)nn2)cc1)c1c(O)c2ccccc2oc1=O` [Compound A], the mode of inhibition entry in assay [1] was “competitive”.

`O=C1Nc2ccccc2/C1=N/N=C/c1ccc(OCc2cn(Cc3ccccc3F)nn2)cc1` [Compound C]: in assay [1], the “fold improvement in the inhibitory activity compared to acarbose” value is 46 fold.

As a reminder, the IC50 is the concentration needed to halve the response being measured. In general, Ki refers to the equilibrium dissociation constant of an inhibitor or competing ligand from its target.
